Holding throughout (format): cell-based
The subject of one experiment is A. niger IMI 149007. The experiment in a line: Microstatic activity, MIC in tryptone soy broth. The conditions noted are these: Aspergillus niger, IMI149007, 120 h, 25° C., 5 days. The method in brief: (§1)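 Diols dissolved at 40 wt% in propylene glycol at 60 °C, diluted in tryptone soy broth to 400 000–3125 ppm, then inoculated (0.1 ml organism per 5 ml). Bacteria incubated 48 h at 30 °C, fungi 5 days at 25 °C. MIC taken as a range between the last concentration showing visible growth/clouding and the first without.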

The next experiment deals with C. albicans NCPF 3179. The experiment in a line: Microstatic activity, MIC in tryptone soy broth. To be noted: 25° C., 5 days; for MIC: Candida albicans, NCPF3179, 120 h. In a few lines:
as §1

Another experiment has as its system E. coli ATCC 10536. The experiment in a line: Suspension test EN 1040, bactericidal activity. The conditions noted are these: 1000 ppm of active substance. The protocol:
(§2) The bactericidal activity of the substances of this invention was carried out in a suspension test corresponding to the European standard EN 1040 and compared with the activities of customary commercial products. For this, only relatively small modifications were made. The substances of the formula (1) were dissolved in water or ethanol to give a 1% strength stock solution. For determining the bactericidal activities, the test mixtures were selected such that 1000 ppm of active substance was present in an aqueous solution. The procedure was the same with the comparison samples. For the results shown in table 2, the test mixtures were inoculated with the following bacterial strains such that the stated germ densities were present in the test mixtures. E. coli ATCC 10536 1−2×10^7 CFU/ml The test mixtures were incubated at room temperature (22° C.+/−2° C.). After defined contact times, aliquots of 1 ml were taken in order to determine the surviving germ count. For the deactivation of the microbicidal activity of the diols, the aliquots were diluted in 1:10 dilution steps in a solution of TS broth with 10% Tween, 3% lecithin, 0.1% histidines and 0.5% sodium thiosulfate and the 10^−2 and 10^−3 dilution stages were used for determining the surviving germ count. For this purpose, corresponding aliquots were plated out on Caso medium with inhibitor (Merck) and incubated at 37° C. for 24 h. The ascertained surviving germ counts were in each case compared with a mixture containing water (water control) by determining the logarithmic reduction in the surviving germ counts based on the water control.

The subject of a further experiment is S. aureus ATCC 6538. The experiment in a line: Suspension test EN 1040, bactericidal activity. To be noted: 1000 ppm of active substance. The protocol: as §2, with “S. aureus” for “E. coli”, “6538” for “10536”
For another experiment, the system named is P. aeruginosa ATCC 15442. The experiment is described as follows: Suspension test EN 1040, bactericidal activity. To be noted: 1000 ppm of active substance. As to the method:
as §2, with “P. aeruginosa” for “E. coli”, “15442” for “10536”

Setting [1] is: lower limit of MIC range, read-out: MIC value (ppm of diol), from.
The mark [2] stands for this setting: upper limit of MIC range, read-out: MIC value (ppm of diol), to.

Read-outs that look alike come from different tables or passages of the source.

As for `CCCC(O)CO` (centres unmarked) [1,2-Pentanediol, 1,2-pentanediol, reference compound], the MIC (usually the least concentration at which growth counts as inhibited) in the experiment with A. niger IMI 149007 (setting [1]) was above 12.5 mg/mL; with A. niger IMI 149007 (setting [2]) it was at most 25 mg/mL; in the experiment with C. albicans NCPF 3179 (setting [1]) it was above 25 mg/mL; in the experiment with C. albicans NCPF 3179 (setting [2]) it was at most 50 mg/mL. Moreover, the “Microbicidal activity given as logarithmic reduction in germ count” value in the experiment on E. coli ATCC 10536 (contact time 5 min), with E. coli ATCC 10536 (contact time 30 min), in the experiment on E. coli ATCC 10536 (contact time 24 h), with S. aureus ATCC 6538 (contact time 5 min), in the experiment with S. aureus ATCC 6538 (contact time 30 min) and in the experiment with S. aureus ATCC 6538 (contact time 24 h) was below 1 log. red each time. In the experiment on P. aeruginosa ATCC 15442 (contact time 5 min), the “Microbicidal activity given as logarithmic reduction in germ count” value is listed as below 1 log. red.
As for `OCC1(CO)CC2CCC1C2` (centres unmarked) [2,2-DMNB, 2,2-dimethylolnorbornane], the MIC was above 25 mg/mL with A. niger IMI 149007 (setting [1]), at most 50 mg/mL in the experiment with A. niger IMI 149007 (setting [2]), above 50 mg/mL with C. albicans NCPF 3179 (setting [1]) and at most 100 mg/mL with C. albicans NCPF 3179 (setting [2]).
Consider `OCC1(CO)CCCC1` [DMCP, 1,1-dimethylolcyclopentane], for which the minimum inhibitory concentration (MIC) in the experiment on A. niger IMI 149007 (setting [1]) was above 50 mg/mL; in the experiment with A. niger IMI 149007 (setting [2]), at most 100 mg/mL; in the experiment on C. albicans NCPF 3179 (setting [1]) it was above 25 mg/mL; in the experiment with C. albicans NCPF 3179 (setting [2]), at most 50 mg/mL.
In the same order, the values of `CC(C)C(C)(CO)CO` [IMPD, 2-isopropyl-2-methylpropane-1,3-diol] are above 25 mg/mL, at most 50 mg/mL, above 25 mg/mL and at most 50 mg/mL.
With `CCCCCCCCC(C)(CO)CO` [OMPD, 2-octyl-2-methylpropane-1,3-diol], the MIC in the experiment with A. niger IMI 149007 (setting [1]) was above 3.12 mg/mL; in the experiment on A. niger IMI 149007 (setting [2]), at most 6.25 mg/mL; in the experiment on C. albicans NCPF 3179 (setting [2]) it was at most 3.12 mg/mL. The “MIC value (ppm of diol), from” value in the experiment with C. albicans NCPF 3179 (lower limit of MIC range) is on record as above 0 ppm. The “Microbicidal activity given as logarithmic reduction in germ count” value with E. coli ATCC 10536 (contact time 5 min) was above 5 log. red; in the experiment on E. coli ATCC 10536 (contact time 30 min), above 5 log. red; with E. coli ATCC 10536 (contact time 24 h), above 5 log. red; with S. aureus ATCC 6538 (contact time 5 min) it was below 1 log. red; in the experiment on S. aureus ATCC 6538 (contact time 30 min), 4.8 log. red; in the experiment with S. aureus ATCC 6538 (contact time 24 h) it was above 5 log. red. For the same compound, the figures for the “Microbicidal activity given as logarithmic reduction in germ count” value with P. aeruginosa ATCC 15442 (contact time 5 min) and in the experiment on P. aeruginosa ATCC 15442 (contact time 30 min) were 4.5 log. red and 4.7 log. red, respectively.
Consider `CCCCCC(CO)(CO)CCC` [PPPD, 2-pentyl-2-propylpropane-1,3-diol], for which the MIC with A. niger IMI 149007 (setting [1]) was above 6.25 mg/mL; in the experiment with A. niger IMI 149007 (setting [2]), at most 12.5 mg/mL; in the experiment on C. albicans NCPF 3179 (setting [1]), above 6.25 mg/mL; with C. albicans NCPF 3179 (setting [2]), at most 12.5 mg/mL. Moreover, the “Microbicidal activity given as logarithmic reduction in germ count” value was above 5 log. red with E. coli ATCC 10536 (contact time 5 min); above 5 log. red in the experiment on E. coli ATCC 10536 (contact time 30 min); above 5 log. red in the experiment with E. coli ATCC 10536 (contact time 24 h); below 1 log. red in the experiment on S. aureus ATCC 6538 (contact time 5 min); 1.5 log. red with S. aureus ATCC 6538 (contact time 30 min); above 5 log. red in the experiment with S. aureus ATCC 6538 (contact time 24 h). Also, the “Microbicidal activity given as logarithmic reduction in germ count” value is 3.2 log. red in the experiment on P. aeruginosa ATCC 15442 (contact time 5 min) and 3.1 log. red in the experiment on P. aeruginosa ATCC 15442 (contact time 30 min).
